From PubChem BioAssay AID248 (DTP/NCI, 2004)
Values joined by “and” are separate entries in the source; they are usually repeats but may differ in a detail not shown here. Identical values can stand only once. Inconclusive results and toxic doses are left out. Cut-off read from the data, not from the text of the source: active = T/C of 150% or more; inactive = T/C below 125%.

Test system: L1210 leukemia ip in BDF1 mice, survival T/C
Experiment: NCI In Vivo Anticancer Drug Screen. Data for tumor model L1210 Leukemia (intraperitoneal) in B6D2F1 (BDF1) mice
Conditions: endpoint: mean survival time, higher = longer survival
Outline: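 In this screen, tumor-bearing mice given compound are compared to those given vehicle, and their survival values are reported as a treated-to-control quotient.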

[1] = dose: 50.0 mg/kg/injection, schedule: Q01DX009 (ip), vehicle: saline
[2] = dose: 100.0 mg/kg/injection, schedule: Q04DX003 (ip), vehicle: saline
[3] = dose: 200.0 mg/kg/injection, schedule: Q04DX003 (ip), vehicle: saline
[4] = dose: 100.0 mg/kg/injection, schedule: Q04DX002 (ip), vehicle: Klucel (hydroxypropylcellulose) (HPC)
[5] = dose: 200.0 mg/kg/injection, schedule: Q04DX002 (ip), vehicle: Klucel (hydroxypropylcellulose) (HPC)
[6] = dose: 400.0 mg/kg/injection, schedule: Q04DX002 (ip), vehicle: Klucel (hydroxypropylcellulose) (HPC)
[7] = dose: 100.0 mg/kg/injection, schedule: Q01DX009 (ip), vehicle: saline
[8] = dose: 200.0 mg/kg/injection, schedule: Q01DX009 (ip), vehicle: saline
[9] = dose: 25.0 mg/kg/injection, schedule: Q04DX002 (ip), vehicle: saline with Tween-80
[10] = dose: 25.0 mg/kg/injection, schedule: Q04DX003 (ip), vehicle: saline with Tween-80
[11] = dose: 50.0 mg/kg/injection, schedule: Q04DX003 (ip), vehicle: saline with Tween-80
[12] = dose: 100.0 mg/kg/injection, schedule: Q04DX003 (ip), vehicle: saline with Tween-80
[13] = dose: 200.0 mg/kg/injection, schedule: Q04DX003 (ip), vehicle: saline with Tween-80

Measured: T/C

CN(C)c1ccc(NC2=NCCO2)cc1
inactive: dose: 12.5 mg/kg/injection, schedule: Q04DX003 (ip), vehicle: saline 95 % of control | dose: 25.0 mg/kg/injection, schedule: Q01DX009 (ip), vehicle: saline 104 % of control | dose: 25.0 mg/kg/injection, schedule: Q04DX003 (ip), vehicle: saline 102 % of control | [1] 95 % of control | dose: 50.0 mg/kg/injection, schedule: Q04DX003 (ip), vehicle: saline 98 % of control | [2] 97 % of control | [3] 87 % of control

Nc1nc(N)c(CCCOc2ccc(NC(=O)c3cccc(S(=O)OF)c3)cc2)c(N)n1 (stereo not given)
inactive: dose: 0.8 mg/kg/injection, schedule: Q01DX015 (ip), vehicle: saline 97 % of control | dose: 4.0 mg/kg/injection, schedule: Q01DX015 (ip), vehicle: saline 97 % of control | dose: 20.0 mg/kg/injection, schedule: Q01DX015 (ip), vehicle: saline 95 % of control | dose: 100.0 mg/kg/injection, schedule: Q01DX015 (ip), vehicle: saline 106 % of control | dose: 133.0 mg/kg/injection, schedule: Q01DX015 (ip), vehicle: saline 91 % of control

O=C(OCC(OC(=O)c1ccccc1)C(OC(=O)c1ccccc1)C(COC(=O)c1ccccc1)OC(=O)c1ccccc1)c1ccccc1 (stereo not given)
inactive: [4] 93 % of control | [5] 105 % of control | [6] 93 % of control

CC1CN=C(c2ccc(NC(=O)NCCCNC(=O)Nc3ccc(C4=NCC(C)N4)cc3)cc2)N1 (stereo not given)
active: dose: 30.0 mg/kg/injection, schedule: Q01DX015 (ip), vehicle: methylcellulose (MC) 150 % of control

O=C1OCC(O)C(O)C(O)C(O)C1O (stereo not given)
inactive: [7] 102 % of control | [8] 100 % of control | dose: 400.0 mg/kg/injection, schedule: Q01DX009 (ip), vehicle: saline 102 % of control

Cc1ccccc1Nc1n[nH]c(=O)n1-c1ccccc1C
inactive: dose: 100.0 mg/kg/injection, schedule: Q04DX003 (ip), vehicle: carboxymethylcellulose (CMC) 98 % of control | dose: 200.0 mg/kg/injection, schedule: Q04DX003 (ip), vehicle: carboxymethylcellulose (CMC) 90 % of control | dose: 400.0 mg/kg/injection, schedule: Q04DX003 (ip), vehicle: carboxymethylcellulose (CMC) 106 % of control

O=C1C(NCCO)=C(N2CC2)C(=O)C(NCCO)=C1N1CC1
active: dose: 0.18 mg/kg/injection, schedule: Q01DX009 (ip), vehicle: saline 159 % of control and 164 % of control and 195 % of control | dose: 0.19 mg/kg/injection, schedule: Q01DX009 (ip), vehicle: saline 153 % of control | dose: 0.37 mg/kg/injection, schedule: Q01DX009 (ip), vehicle: saline 157 % of control and 164 % of control and 212 % of control | dose: 0.37 mg/kg/injection, schedule: Q04DX003 (ip), vehicle: saline 155 % of control and 157 % of control | dose: 0.38 mg/kg/injection, schedule: Q01DX009 (ip), vehicle: saline 184 % of control | dose: 0.75 mg/kg/injection, schedule: Q04DX003 (ip), vehicle: saline 170 % of control and 231 % of control | dose: 1.5 mg/kg/injection, schedule: Q01DX001 (ip), vehicle: saline 275 % of control | dose: 1.5 mg/kg/injection, schedule: Q04DX003 (ip), vehicle: saline 160 % of control and 164 % of control and 186 % of control
inactive: dose: 0.04 mg/kg/injection, schedule: Q01DX009 (ip), vehicle: saline 115 % of control | dose: 0.09 mg/kg/injection, schedule: Q01DX009 (ip), vehicle: saline 111 % of control | dose: 0.09 mg/kg/injection, schedule: Q04DX003 (ip), vehicle: saline 121 % of control | dose: 0.18 mg/kg/injection, schedule: Q04DX003 (ip), vehicle: saline 120 % of control | dose: 0.37 mg/kg/injection, schedule: Q01DX001 (ip), vehicle: saline 103 % of control | dose: 1.56 mg/kg/injection, schedule: Q04DX003 (ip), vehicle: saline 103 % of control | dose: 3.0 mg/kg/injection, schedule: Q04DX003 (ip), vehicle: saline 104 % of control and 115 % of control

NC(CSS(=O)(=O)O)=NCC1CC2CCC1C2 (stereo not given)
inactive: dose: 6.25 mg/kg/injection, schedule: Q04DX002 (ip), vehicle: saline with Tween-80 100 % of control | dose: 12.5 mg/kg/injection, schedule: Q04DX002 (ip), vehicle: saline with Tween-80 110 % of control | [9] 106 % of control

O=C(Nc1ccnc(=O)[nH]1)c1ccccc1
inactive: dose: 100.0 mg/kg/injection, schedule: Q01DX001 (ip), vehicle: Klucel (hydroxypropylcellulose) (HPC) 91 % of control | dose: 200.0 mg/kg/injection, schedule: Q01DX001 (ip), vehicle: Klucel (hydroxypropylcellulose) (HPC) 100 % of control | dose: 400.0 mg/kg/injection, schedule: Q01DX001 (ip), vehicle: Klucel (hydroxypropylcellulose) (HPC) 92 % of control

CC1=NC(C(=O)O)C(=O)O1 (stereo not given)
inactive: [7] 98 % of control | [2] 105 % of control | [8] 93 % of control | [3] 97 % of control | dose: 400.0 mg/kg/injection, schedule: Q04DX003 (ip), vehicle: saline 103 % of control

CCCCCCCCCCCCSCCCN
inactive: dose: 12.5 mg/kg/injection, schedule: Q04DX003 (ip), vehicle: saline with Tween-80 96 % of control | [10] 93 % of control | [11] 96 % of control

CC(NC(=O)NCCCl)c1ccccc1 (stereo not given)
inactive: [10] 100 % of control | [11] 90 % of control | [12] 100 % of control and 90 % of control and 94 % of control | [13] 102 % of control

CC(C(=O)c1ccc(Br)cc1)C(Br)c1ccccc1 (stereo not given)
inactive: dose: 100.0 mg/kg/injection, schedule: Q01DX009 (ip), vehicle: saline with Tween-80 95 % of control | [12] 96 % of control | dose: 200.0 mg/kg/injection, schedule: Q01DX009 (ip), vehicle: saline with Tween-80 95 % of control | [13] 91 % of control | dose: 400.0 mg/kg/injection, schedule: Q01DX009 (ip), vehicle: saline with Tween-80 95 % of control | dose: 400.0 mg/kg/injection, schedule: Q04DX003 (ip), vehicle: saline with Tween-80 98 % of control

CN(Cc1ccccc1)C(=O)C(c1ccccc1)c1ccccc1
inactive: [4] 89 % of control | [5] 86 % of control | [6] 96 % of control

O=C(O)COc1ccc(Cl)cc1Cc1ccccc1
inactive: dose: 100.0 mg/kg/injection, schedule: Q01DX001 (ip), vehicle: saline with Tween-80 98 % of control | dose: 200.0 mg/kg/injection, schedule: Q01DX001 (ip), vehicle: saline with Tween-80 96 % of control | dose: 400.0 mg/kg/injection, schedule: Q01DX001 (ip), vehicle: saline with Tween-80 117 % of control

O=C1c2ccccc2-c2nc3cncnc3nc21 (tested in a mixture with another compound)
inactive: [1] 98 % of control | [7] 101 % of control | [2] 95 % of control | [8] 101 % of control | [3] 101 % of control

C[N+]1(C)C2CC(O)CC1C1OC12 (stereo not given)
inactive: dose: 1.2 mg/kg/injection, schedule: Q01DX001 (ip), vehicle: saline 95 % of control | dose: 2.5 mg/kg/injection, schedule: Q01DX001 (ip), vehicle: saline 97 % of control | dose: 5.0 mg/kg/injection, schedule: Q01DX001 (ip), vehicle: saline 100 % of control

CCCCN1C(=O)N(c2ccc(OCC)cc2)C2N(CCCC)C1C(C)(C)C2(C)C (stereo not given)
inactive: [9] 103 % of control | dose: 50.0 mg/kg/injection, schedule: Q04DX002 (ip), vehicle: saline with Tween-80 118 % of control | dose: 100.0 mg/kg/injection, schedule: Q04DX002 (ip), vehicle: saline with Tween-80 122 % of control

Cc1ccc(NC(=O)SCc2ccccc2)c([N+](=O)[O-])c1
inactive: dose: 100.0 mg/kg/injection, schedule: Q01DX009 (ip), vehicle: Klucel (hydroxypropylcellulose) (HPC) 98 % of control | dose: 200.0 mg/kg/injection, schedule: Q01DX009 (ip), vehicle: Klucel (hydroxypropylcellulose) (HPC) 100 % of control | dose: 400.0 mg/kg/injection, schedule: Q01DX009 (ip), vehicle: Klucel (hydroxypropylcellulose) (HPC) 93 % of control

CCN(CC[n+]1ccccc1)c1ccccc1 (tested in a mixture with another compound)
inactive: dose: 50.0 mg/kg/injection, schedule: Q01DX001 (ip), vehicle: saline 103 % of control

CCCCCCc1cc2ccccc2cc1CCCC
inactive: dose: 100.0 mg/kg/injection, schedule: Q01DX001 (ip), vehicle: saline 102 % of control | dose: 200.0 mg/kg/injection, schedule: Q01DX001 (ip), vehicle: saline 100 % of control | dose: 400.0 mg/kg/injection, schedule: Q01DX001 (ip), vehicle: saline 97 % of control
